Measurements as given in ChEMBL document CHEMBL1201862, “PubChem BioAssay data set” (2004).
Activity calls are given as the source filed them.

Experiments:
[1] = CRF-BP/CRF-R2 complex antagonists, dose response, cell-based, uHTS hits, 384-well (AID 651639); assay type: functional, Homo sapiens; settings: read-out: IC50_Mean
[2] = biological target: T1, Corticotropin-releasing factor receptor 2/Corticotropin-releasing factor-binding protein (Homo sapiens, UniProt P24387+Q13324); assay: Dose Response confirmation of uHTS hits for small molecule antagonists of the CRF-binding protein and CRF-R2 receptor complex.; assay type: functional; settings: read-out: IC50_Mean
T1 sequence (Q13324 whole entry): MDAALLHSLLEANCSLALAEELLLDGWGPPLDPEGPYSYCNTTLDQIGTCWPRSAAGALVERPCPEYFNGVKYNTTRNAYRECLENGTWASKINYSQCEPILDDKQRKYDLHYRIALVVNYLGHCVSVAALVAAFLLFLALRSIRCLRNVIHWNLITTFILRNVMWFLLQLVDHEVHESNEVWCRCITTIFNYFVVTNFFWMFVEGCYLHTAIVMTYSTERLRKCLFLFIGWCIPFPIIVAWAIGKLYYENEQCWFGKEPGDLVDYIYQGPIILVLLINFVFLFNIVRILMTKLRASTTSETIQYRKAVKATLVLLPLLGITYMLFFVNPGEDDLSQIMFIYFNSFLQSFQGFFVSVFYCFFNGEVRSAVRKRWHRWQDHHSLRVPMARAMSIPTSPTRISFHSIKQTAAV
T1 sequence (P24387 whole entry): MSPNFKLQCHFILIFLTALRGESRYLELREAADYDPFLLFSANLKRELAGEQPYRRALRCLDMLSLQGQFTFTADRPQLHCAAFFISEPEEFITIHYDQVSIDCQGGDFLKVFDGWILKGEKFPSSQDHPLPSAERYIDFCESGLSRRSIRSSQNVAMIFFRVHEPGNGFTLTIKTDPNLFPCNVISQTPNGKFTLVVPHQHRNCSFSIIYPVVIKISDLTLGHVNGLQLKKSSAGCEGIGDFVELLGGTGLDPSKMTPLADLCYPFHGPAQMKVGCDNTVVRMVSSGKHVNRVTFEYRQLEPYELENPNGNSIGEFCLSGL

[3] = biological target: T1, Corticotropin-releasing factor receptor 2/Corticotropin-releasing factor-binding protein; assay: activators of CRF receptor 2 with binding protein – uHTS hits, confirmation (AID 602473); assay type: functional; settings: read-out: EC50_Mean
INS1 = assay: beta cell apoptosis inhibitors, cytokine rescue, dose response, luminescence, retest (AID 449756); assay type: functional, cell-based; settings: Rattus norvegicus;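 note: cell death triggered by IL-1 beta plus TNF-alpha plus IFN-gamma mixture; protective hits raise ATP signal compared with cytokine alone wells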
Galanin receptor type 3 = biological target: T2, Galanin receptor type 3 (Homo sapiens, UniProt O60755); assay: Fluorescence-based cell-based primary high throughput dose response assay to identify antagonists of the Galanin Receptor 3 (GalR3).; assay type: functional
T2 sequence (O60755 whole entry): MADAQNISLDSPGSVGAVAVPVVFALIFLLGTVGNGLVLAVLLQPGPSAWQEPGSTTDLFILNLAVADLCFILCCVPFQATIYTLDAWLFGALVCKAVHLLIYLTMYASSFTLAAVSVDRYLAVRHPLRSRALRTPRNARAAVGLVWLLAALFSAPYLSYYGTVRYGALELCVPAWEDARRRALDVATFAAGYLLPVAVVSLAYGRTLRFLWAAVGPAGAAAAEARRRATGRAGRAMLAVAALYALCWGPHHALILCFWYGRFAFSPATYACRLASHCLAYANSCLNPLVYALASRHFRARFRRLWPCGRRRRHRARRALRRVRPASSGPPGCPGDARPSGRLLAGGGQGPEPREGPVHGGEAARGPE

[4] = biological target: Photoreceptor-specific nuclear receptor (Homo sapiens, UniProt Q9Y5X4); assay type: functional, cell-based;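 note: CHO-S cells with Gal4-NCOR and VP16-NR2E3 two-hybrid luciferase reporter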
cells = assay type: functional, cell-based; settings: HEK-CNG
[5] = biological target: T3, Carboxy-terminal domain RNA polymerase II polypeptide A small phosphatase 1 (Homo sapiens, UniProt Q9GZU7); assay: inhibitors of CTDSP1, concentration-response testing, biochemical assay, absorbance-based, actives from ultra-high-throughput screening (AID 540297); assay type: functional
T3 sequence (Q9GZU7 whole entry): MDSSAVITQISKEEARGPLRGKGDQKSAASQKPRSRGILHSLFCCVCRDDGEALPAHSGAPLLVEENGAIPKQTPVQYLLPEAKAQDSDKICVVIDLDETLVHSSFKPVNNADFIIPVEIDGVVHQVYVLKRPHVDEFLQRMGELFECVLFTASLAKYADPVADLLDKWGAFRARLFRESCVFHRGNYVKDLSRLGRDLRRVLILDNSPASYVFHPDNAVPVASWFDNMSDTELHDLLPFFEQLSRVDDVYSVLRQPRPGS

Vero = assay: cells; assay type: functional; settings: Chlorocebus sabaeus
[6] = biological target: T4, Ubiquitin-conjugating enzyme E2 N (Homo sapiens, UniProt P61088); assay type: functional;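 note: Dose-response confirmation in a TR-FRET assay detecting UBC13-driven polyubiquitin chain formation, inhibition measured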
T4 sequence (P61088 whole entry): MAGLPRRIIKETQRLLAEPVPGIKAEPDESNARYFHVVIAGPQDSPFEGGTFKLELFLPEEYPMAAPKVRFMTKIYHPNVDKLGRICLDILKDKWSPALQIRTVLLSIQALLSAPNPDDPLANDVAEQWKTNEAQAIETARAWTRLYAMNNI

[7] = biological target: T5, DNA repair protein RAD52 homolog (Homo sapiens, UniProt P43351); assay type: functional, biochemical
T5 sequence (P43351 whole entry): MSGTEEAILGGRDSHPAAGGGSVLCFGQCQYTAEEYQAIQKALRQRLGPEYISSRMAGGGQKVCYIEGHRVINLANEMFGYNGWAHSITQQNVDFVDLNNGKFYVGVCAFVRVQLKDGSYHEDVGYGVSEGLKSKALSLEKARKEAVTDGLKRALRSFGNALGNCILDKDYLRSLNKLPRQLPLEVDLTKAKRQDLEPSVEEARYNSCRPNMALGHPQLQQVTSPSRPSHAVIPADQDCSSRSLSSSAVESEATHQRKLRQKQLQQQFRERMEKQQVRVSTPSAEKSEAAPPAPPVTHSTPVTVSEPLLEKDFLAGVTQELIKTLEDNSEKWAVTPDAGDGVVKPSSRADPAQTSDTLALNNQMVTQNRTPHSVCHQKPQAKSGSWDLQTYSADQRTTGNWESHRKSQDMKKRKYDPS

[8] = HepG2 cell cytotoxicity, dose response, cytotoxicity control for Shn3 inhibitor project, CellTiter-Glo, cherry-picked (AID 624134); assay type: functional, cell-based
[9] = Luminescence Cell-Based Dose Retest to Confirm Inhibitors of Cancer Stem Cells. [Related pubchem assays (depositor defined):AID2717, AID2721]; assay type: functional; settings: Homo sapiens
[10] = control 3'UTR Renilla luciferase suppression, dose response, counter-screen for Shn3 inhibitor project, cell-based, Clone20-Shn3RL, cherry-picked (AID 624133); assay type: functional
Nonstructural protein 1 = Nonstructural protein 1 (Influenza A virus, UniProt Q194T2); assay type: functional, Influenza A virus (A/California/07/2009(H1N1))
[11] = Shn3 3'UTR reporter inhibitors, dose response, cell-based, Clone20 osteoblasts, firefly luciferase, cherry-picked (AID 624132); assay type: functional;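 note: firefly luciferase luminescence from reporter carrying the Shn3 3'UTR in osteoblasts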

Sequence of Photoreceptor-specific nuclear receptor (Q9Y5X4 whole entry, the tested form may be a part): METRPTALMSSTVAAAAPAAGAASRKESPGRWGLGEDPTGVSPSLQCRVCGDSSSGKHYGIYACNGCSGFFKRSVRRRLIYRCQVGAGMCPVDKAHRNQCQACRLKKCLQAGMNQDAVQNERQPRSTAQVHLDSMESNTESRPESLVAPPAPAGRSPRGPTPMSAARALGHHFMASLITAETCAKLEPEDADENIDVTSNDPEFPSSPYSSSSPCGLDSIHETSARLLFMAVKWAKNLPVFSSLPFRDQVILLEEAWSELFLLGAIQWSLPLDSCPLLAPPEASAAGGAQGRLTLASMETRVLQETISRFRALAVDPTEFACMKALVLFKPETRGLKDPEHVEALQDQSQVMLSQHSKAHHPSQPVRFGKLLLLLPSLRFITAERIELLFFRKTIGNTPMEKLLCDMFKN
Sequence of Nonstructural protein 1 (Q194T2 whole entry): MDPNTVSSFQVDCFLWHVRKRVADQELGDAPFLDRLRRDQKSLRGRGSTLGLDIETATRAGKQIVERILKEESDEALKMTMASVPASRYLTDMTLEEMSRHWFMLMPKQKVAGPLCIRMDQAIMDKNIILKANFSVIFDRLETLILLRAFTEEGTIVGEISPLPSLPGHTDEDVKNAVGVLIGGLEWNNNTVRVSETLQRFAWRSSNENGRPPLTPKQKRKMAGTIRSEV

For `COc1ccc(S(=O)(=O)N2CCCCCC2)cc1C(=O)N(C)Cc1ccc(C(C)(C)C)cc1`, the IC50 [1] was 13.5 µM (active), the IC50 [2] was 14.6 µM (active) and the EC50 [3] was > 53 µM (inactive).
In the case of `CCCOc1ccc(CSc2nc3ccccc3[nH]2)cc1`, the AC50 (INS1) is reported as 3.73 µM (active), the IC50 (Galanin receptor type 3) is reported as 2.27 µM (active) and the IC50 [4] is reported as 4.25 µM (active). The EC50 (cells) was > 29.9 µM (inactive).
With `C=CCC1(CC=C)CCCN1C(=O)c1cc(COc2cncc(Cl)c2)on1` the IC50 (Galanin receptor type 3) was > 1.11 µM (active) and the EC50 (cells) was > 29.9 µM (inactive).
In the case of `COCC1CCCN(C(=O)c2cc(COc3ccc4ncccc4c3)on2)C1` (centres undefined), the IC50 (Galanin receptor type 3) is reported as 1.3 µM (active) and the EC50 (cells) is reported as > 29.9 µM (inactive).
In the case of `O=C(COc1cc(Cl)ccc1Cl)N1CCNC1=O`, the IC50 [1] is reported as 8.63 µM (active), the IC50 [2] is reported as 27.4 µM (active) and the EC50 [3] is reported as > 53 µM (inactive).
With `COC(=O)c1cc(NC(=O)Cc2cccs2)cc(C(=O)OC)c1` the IC50 [5] was 3.84 µM (active).
With `CCc1cc(OCCCSc2nc(C)cc(O)n2)ccc1Cl` the CC50 (Vero) was 2.36 µM (active) and the IC50 [4] was 3.02 µM (active).
For `O=C(CNC(=O)c1cccc(OC(F)F)c1)OCc1cc(=O)n2cc(Br)ccc2n1`, the IC50 [5] was 7.09 µM (active).
In the case of `Fc1ccccc1CSc1nnnn1-c1ccc2c(c1)OCO2`, the IC50 [1] is reported as > 20 µM (inactive), the IC50 [2] is reported as 15.6 µM (active) and the EC50 [3] is reported as > 53 µM (inactive).
With `CN(C(=O)Oc1ccc(C(=O)c2ccc(Cl)cc2)cc1)c1ccccc1` the IC50 [1] was > 20 µM (inactive), the IC50 [2] was < 0.368 µM (active) and the EC50 [3] was > 53 µM (inactive).
For `CCOc1ccc(-n2c(SCC(=O)NCc3ccco3)nc3c4ccccc4nc-3c2O)cc1`, the IC50 [1] was 15 µM (active), the IC50 [2] was 3.76 µM (active) and the EC50 [3] was > 53 µM (inactive).
In the case of `CC[C@@H](C)[C@@H]1CN([C@@H](CN2CCC[C@H]2CN2C(N)=NC[C@H]2CC(C)C)C(C)C)C(=N)N1CCc1ccc(Cl)c(Cl)c1`, the IC50 [6] is reported as > 20 µM (inactive), the AC50 [7] is reported as 17.3 µM (active) and the IC50 [1] is reported as 7.1 µM (active). For the same molecule, the IC50 [2] was 2.82 µM (active) and the EC50 [3] was 42.3 µM (active).
For `CSc1ccc(C(=O)C2CCCN(C(=O)CCc3c(C)nn(C)c3C)C2)cc1` (centres undefined), the IC50 (Galanin receptor type 3) was 1.15 µM (active) and the EC50 (cells) was > 29.9 µM (inactive).
With `COCCCNC(=S)N1CCN(c2nc(-c3ccc(Cl)cc3)cs2)CC1` the IC50 [4] was 4.25 µM (active).
In the case of `O=C(O)C1OC1(c1ccccc1Cl)c1ccccc1Cl` (centres undefined), the IC50 [1] is reported as > 20 µM (inactive), the IC50 [2] is reported as 23.4 µM (active) and the EC50 [3] is reported as > 53 µM (inactive).
In the case of `COc1ccc(C)cc1NC(=O)NC1CC(=O)N(c2ccc3c(c2)OCCO3)C1` (centres undefined), the IC50 [4] is reported as 3.25 µM (active).
With `CCOC(=O)c1cc2c(=O)n3cccc(C)c3nc2n(Cc2ccco2)/c1=N/C(=O)c1cccnc1` the IC50 [5] was 18.8 µM (active).
For `FC(F)(F)c1ccccc1Cc1c(-c2ccco2)nc2c3ccccc3ccn12`, the IC50 (Galanin receptor type 3) was 13 µM (inactive) and the EC50 (cells) was > 29.9 µM (inactive).
In the case of `Clc1cc2cccnc2c2ncccc12`, the AC50 (INS1) is reported as 6.84 µM (active), the AC50 [8] is reported as 5.34 µM (active) and the AC50 [9] is reported as 4.73 µM (active). The AC50 [10] was 3.94 µM (active), the IC50 (Nonstructural protein 1) was 3.44 µM (active) and the IC50 [4] was 5.53 µM (active). The AC50 [11] was 4.06 µM (active).
